In patent US9017689B2, “Peptides for vaccine against birch allergy” (Circassia Limited, priority 2010, dated 2015):
Like-named read-outs stand apart in the source and are kept apart here. Ends that are not written are not given here.

How the values were obtained:
[1] = test system: Peripheral blood mononuclear cells (PBMCs); assay: Cytokine release assay (IL-10, IL-13, IFN-g multiplex bead assay); assay type: cell-based, human; settings: proportion of subjects in which peptide induced IL-13 or IFN-g above 100 pg/ml; 47 birch allergic subjects; peptide 100 μg/ml; 5 days
Experimental: Peripheral blood mononuclear cells (PBMCs) were isolated from heparinised blood by Ficoll density gradient centrifugation. […] Following stimulation, culture supernatants (100 μl) were harvested for testing by multiplex bead assay.
Multiplex cytokine bead assays (IL-10, IL-13, Interferon gamma (IFN-g)) were performed on thawed culture supernatants according to the manufacturer's instructions. Single measurements were performed for each culture supernatant sample. After completion of the multiplex assay, individual cytokine levels were determined by interpolation from the standard curve generated in the assay.

[2] = Solubility screening in trehalose matrices pH 2.65 to 7.03; assay type: physicochemical; settings: for solubility: read-out: Solubility [mg per ml];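 as to all read-outs here: test items are peptides, each checked for solubility in every trehalose matrix, the matrices made up in distilled deionised water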
Experimental: The solubility of each of the nine peptides was evaluated in each of the matrices in accordance with Appendix 1.
Each matrix was prepared at a concentration of 10 mM of the buffering agent.
The procedure indicated is for the preparation of 100 mL of each buffer, but alternative volumes can be prepared by adjusting the quantities. • 0.1M stock solutions of sodium citrate and potassium dihydrogen phosphate were prepared. • Weight of trehalose dihydrate equivalent to 260 mM was transferred to an appropriate mixing vessel containing 70-80 mL of distilled deionised water and allowed to dissolve. • 10 mL of the appropriate stock 0.1M buffer solution was added to the mixing vessel and stirred. • The pH of the matrix was adjusted to the desired value by adding 2 mM hydrochloric acid or 0.1M sodium hydroxide as required. • The solutions were finally diluted to 100 g weight and the pH re-assessed.

[3] = 2 mM HCl and 260 mM trehalose dihydrate, pH 2.65
[4] = 10 mM potassium dihydrogen phosphate and 260 mM trehalose dihydrate, pH 6.03
[5] = 10 mM potassium dihydrogen phosphate and 260 mM trehalose dihydrate, pH 7.03
[6] = 10 mM sodium citrate and 260 mM trehalose dihydrate, pH 3.01
[7] = 10 mM sodium citrate and 260 mM trehalose dihydrate, pH 3.99
[8] = 10 mM sodium citrate and 260 mM trehalose dihydrate, pH 5.02
[9] = 10 mM sodium citrate and 260 mM trehalose dihydrate, pH 6.01
[10] = aqueous buffer, 10 mM sodium citrate and 260 mM trehalose dihydrate, pH 6.01

Which “% responders” value [1] does the source give for “IKYMVIQGEAGAVIRGK (GIKYMVIQGEAGAVIRGK; Betulaceae) [Bir13, Bet v2-derived peptide]” here?
Its value is 23%.

With PAARMFKAFILEGDKLVPK [Bir02J] as the sequence, how does the “Comments (solubility on preparation)” value [2, 3] read?
The value was “Completely dissolved”.

What about the “Solubility [mg per ml 'as is']” value [2, 3] of the same sequence?
The value was 23.60 mg per ml ‘as is’.

What about the “Solubility [μmol per ml]” value [2, 3] of the same sequence?
Its value is 9.069 μmol per ml.

What about the “Solubility after 24 Hours” value [2, 3] of the same sequence?
The value was “Completely dissolved”.

What about the “Commute (solubility on preparation)” value [2, 4] of the same sequence?
The value was “Completely dissolved”.

And the “Solubility [mg per ml 'as is']” value [2, 4]?
Its value is 11.12 mg per ml ‘as is’.

And the “Solubility [μmol per ml]” value [2, 4]?
Its value is 4.273 μmol per ml.

And the “Solubility after 24 Hours” value [2, 4]?
The value was “Completely dissolved”.

What about the “Comments (solubility on preparation)” value [2, 5] of the same sequence?
Its value is “Completely dissolved”.

And the “Solubility [mg per ml 'as is']” value [2, 5]?
Its value is 12.31 mg per ml ‘as is’.

What about the “Solubility [μmol per ml]” value [2, 5] of the same sequence?
The value was 4.730 μmol per ml.

And the “Solubility after 24 Hours” value [2, 5]?
The value was “Completely dissolved”.

What about the “Comments (solubility on preparation)” value [2, 6] of the same sequence?
The value was “Completely dissolved in”.

What about the “Solubility [mg per ml 'as is']” value [2, 6] of the same sequence?
The value was 0.38 mg per ml ‘as is’.

And the “Solubility [mg per ml]” value [2, 6]?
Its value is 0.314 mg per ml.

What about the “Solubility [μmol per ml]” value [2, 6] of the same sequence?
Its value is 0.147 μmol per ml.

And the “Solubility after 24 Hours” value [2, 6]?
The value was “Precipitated out,”.

What about the “Comments (solubility on preparation)” value [2, 7] of the same sequence?
The value was “Completely dissolved in”.

What about the “Solubility [mg per ml 'as is']” value [2, 7] of the same sequence?
Its value is 0.39 mg per ml ‘as is’.

And the “Solubility [μmol per ml]” value [2, 7]?
Its value is 0.148 μmol per ml.

What about the “Solubility after 24 Hours” value [2, 7] of the same sequence?
The value was “Precipitated out,”.

What about the “Comments (solubility on preparation)” value [2, 8] of the same sequence?
Its value is “Completely dissolved in”.

And the “Solubility [mg per ml 'as is']” value [2, 8]?
Its value is 0.34 mg per ml ‘as is’.

And the “Solubility [μmol per ml]” value [2, 8]?
Its value is 0.132 μmol per ml.

What about the “Solubility after 24 Hours” value [2, 8] of the same sequence?
The value was “Precipitated out,”.

What about the “Comments (solubility on preparation)” value [2, 9] of the same sequence?
Its value is “Completely dissolved in”.

And the “Solubility [mg per ml 'as is']” value [2, 9]?
The value was 0.39 mg per ml ‘as is’.

What about the “Solubility [μmol per ml]” value [2, 9] of the same sequence?
The value was 0.150 μmol per ml.

What about the “Solubility after 24 Hours” value [2, 9] of the same sequence?
The value was “Precipitated out,”.

And the solubility ([2]; aqueous buffer, 10 mM potassium dihydrogen phosphate and 260 mM trehalose dihydrate, pH 6.03)?
Its solubility is no less than 9110 µg/mL.

What about the solubility ([2]; aqueous buffer, 10 mM potassium dihydrogen phosphate and 260 mM trehalose dihydrate, pH 7.03) of the same sequence?
Its solubility is no less than 10100 µg/mL.

What about the solubility ([2]; aqueous buffer, 10 mM sodium citrate and 260 mM trehalose dihydrate, pH 3.99) of the same sequence?
Its solubility is no less than 315 µg/mL.

What about the solubility ([2]; aqueous buffer, 10 mM sodium citrate and 260 mM trehalose dihydrate, pH 5.02) of the same sequence?
Its solubility is no less than 281 µg/mL.

And the solubility [2, 10]?
Its solubility is no less than 320 µg/mL.

And the solubility ([2]; water, 2 mM HCl and 260 mM trehalose dihydrate, pH 2.65)?
The solubility was no less than 19300 µg/mL.

With KEMGETLLRAVESYLLAHS [BIR09R] as the sequence, how does the “Comments (solubility on preparation)” value [2, 9] read?
The value was “Completely dissolved”.

And the “Solubility [mg per ml 'as is']” value [2, 9]?
The value was 4.92 mg per ml ‘as is’.

And the “Solubility [μmol per ml]” value [2, 9]?
Its value is 1.993 μmol per ml.

And the “Solubility after 24 Hours” value [2, 9]?
Its value is “Completely dissolved”.

What about the solubility [2, 10] of the same sequence?
The solubility was no less than 4280 µg/mL.
